We go through nine compounds from PubChem BioAssay AID2060624 (Molecular Pharmacology Branch, DTP, NCI, 2025).

The assay relates to 217524-143-R1-J4-PDC spheroids with HUVEC/MSC, viability. The experiment in a line: Anticancer human tumor 217524-143-R1-J4-PDC patient-derived pancreatic carcinoma cell line growth inhibition [CLK]. Conditions: for viability, T/C: stronger effect = lower value. An excerpt: A high-throughput screen of multi-cell type tumor spheroids was designed to identify active combinations of […] and targeted small molecules. Complex spheroids include a stromal component modeled by human endothelial cells (HUVEC) and fibroblasts modeled by human mesenchymal stem cells (MSCs). The concentration ranges selected for each drug and investigational agent were based upon clinically achievable concentrations if the clinical Cmax of the agent was known.
Compounds. The drugs and investigational agents: cirtuvivint (SM08502; NSC835563), CC-671 (NSC850746), vemurafenib (NSC761431), tapotoclax (NSC804041), sotorasib (NSC818433), adagrasib (NSC831453), MRTX-1133 (NSC836407), BAY2416964 (NSC825713), copanlisib (NSC816437), inavolisib (NSC800729), abemaciclib (NSC768073), osimertinib (NSC779217), entinostat (NSC756642), eltanexor (KPT-8602, NSC794443), venetoclax (NSC766270), ceralasertib (NSC777638), bortezomib (NSC756655), olaparib (NSC753686), talazoparib (NSC767125), alisertib (NSC759677), peposertib (NSC802822), gemcitabine (NSC613327), 5-fluorouracil (NSC19893), SN-38 (NSC673596), oxaliplatin (NSC266046), paclitaxel (NSC125973), and doxorubicin (NSC123127), were obtained from the National Cancer Institute (NCI) Developmental Therapeutics Program Chemical Repository. The FDA-approved anticancer drug set is available from the Developmental Therapeutics Program at https://dtp.cancer.gov/organization/dscb/obtaining/available plates.htm. […] The stock solutions were prepared in dimethyl sulfoxide (DMSO, Sigma-Aldrich, St. Louis, MO, cat. D2650), except for the platinum complexes which were prepared in saline (Quality Biological, Gaithersburg, MD, cat. 114-055-101), at 800-fold the tested concentration and stored at -70 degrees C prior to their use. All drugs and investigational agents were tested over a range starting from a high concentration at or near the clinical Cmax and decreasing in half-log increments. If the clinical Cmax for an agent had not been determined, the highest concentration tested was 10 microM.
Cell Culture. All cells were maintained in an incubator at 37 degrees C and 5% CO2 with 95% humidity. The PDC lines were cultured according to standard operating procedures established by the NCI PDMR. Briefly, all PDCs were thawed and cultured in Matrigel-coated flasks prepared with a working solution of 1X Ham's F-12 nutrient mix, without supplementation (Invitrogen, Waltham, MA, cat. 11765054), 100 U/mL penicillin-streptomycin (Invitrogen, cat. 15140122), and 2.5% Matrigel (Corning Inc., Corning, NY, cat. 354248) for the first three passages. The 947758-054-R-J2-PDC line was cultured in 6B/Colon 1A media, which includes advanced DMEM/F-12 (Thermo Fisher Scientific, cat. 12634028), 10 mM HEPES (Thermo Fisher Scientific, cat. 15630080), 1X GlutaMAX supplement (Thermo Fisher Scientific, cat. 35050061), 0.1 mg/mL primocin (InvivoGen, cat. ant-pm-2), 10% defined fetal bovine serum, heat inactivated (HyClone Laboratories Inc., cat. SH30070.03HI), 1.25 mM N-Acetyl-L-cysteine (Sigma-Aldrich, cat. A9165), 10 mM nicotinamide (Sigma-Aldrich, cat. N0636), 1X B-27 supplement (Thermo Fisher Scientific, cat. 17504044), 1X N-2 supplement (Thermo Fisher Scientific, cat. 17502048), and 10 microM Y-27632 dihydrochloride (Tocris Bioscience, cat. 1254). The 876862-298-R-J1-PDC was cultured in 6E media, which includes all 6B/Colon 1A media components plus 50% L-WRN conditioned media (ATCC, cat. CRL-3276), 50 ng/mL recombinant human EGF recombinant protein (hEGF; Thermo Fisher Scientific, cat. PHG0311), 10 ng/mL recombinant human fibroblast growth factor 10 (hGFG-10; PeproTech, cat. 100-26), 1 ng/mL recombinant human fibroblast growth factor 2 (hFGF-2; PeproTech, cat. 100-18B), and 1 µM prostaglandin E2 (PGE2; Tocris, cat. 2296). The 227483-062-R1-J1-PDC line was cultured in Panc media, containing all 6E components except hFGF-2, with the addition of 500 nM SB-431542 (Selleckchem, cat. S1067) and 10 nM gastrin (Tocris, cat. 3006). […]

“And” between values parts separate entries of the source, which are not always exact repeats. Equal values may be shown once.
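Also: spheroids exposed to agents for seven days before reading.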

The viability, T/C is the ratio of treated to control. A word on the IC50: it is the midpoint of a concentration-inhibition curve. `CC(=O)O[C@H]1C(=O)[C@@]2(C)[C@H]([C@H](OC(=O)c3ccccc3)[C@]3(O)C[C@H](OC(=O)[C@H](O)[C@@H](NC(=O)c4ccccc4)c4ccccc4)C(C)=C1C3(C)C)[C@]1(OC(C)=O)CO[C@@H]1C[C@@H]2O`: the viability, T/C runs as follows: (compound 0.0316 µM) 12.7% and 12%; (compound 0.1 µM) 12.4% and 12.9%; (compound 0.316 µM) 10.1% and 12.3%; (compound 1 µM) 9.86% and 10.8%; (compound 3.16 µM) 13.6% and 14.1%; (compound 10 µM) 16% and 16.4%. Besides, for the setting “curve of compound”, the 50% inhibitory concentration (IC50) is under 31.6 nM.
Regarding `CC1(C)CCC(CN2CCN(c3ccc(C(=O)NS(=O)(=O)c4ccc(NCC5CCOCC5)c([N+](=O)[O-])c4)c(Oc4cnc5[nH]ccc5c4)c3)CC2)=C(c2ccc(Cl)cc2)C1`, the viability, T/C (compound 0.0316 µM) is 121% and 110%; the viability, T/C (compound 0.1 µM) was 89.1% and 75.1%; the viability, T/C (compound 0.316 µM) is 99.5% and 103%; the viability, T/C (compound 1 µM) is 89.8% and 80.3%; the viability, T/C (compound 3.16 µM) is 101% and 86.2%; the viability, T/C (compound 10 µM) is 10.7% and 79.9%. Besides, the half-inhibitory concentration (IC50) (curve of compound) is 6030 nM and > 10000 nM.
Take `CC1COCCN1c1cc(C2(S(C)(=N)=O)CC2)nc(-c2ccnc3[nH]ccc23)n1` (configuration not stated): the viability, T/C is 102% and 109% (compound 0.0316 µM); 94.1% and 75.7% (compound 0.1 µM); 87.9% and 82.8% (compound 0.316 µM); 89.5% and 69.8% (compound 1 µM); 35.7% and 35% (compound 3.16 µM); 21.4% and 20.1% (compound 10 µM). For the same compound, the IC50 (curve of compound) was 2330 nM and 1890 nM.
For `CN1CCN(c2cc(C(=O)Nc3cc4cc(-c5cnn(C)c5)ccc4cn3)ccn2)CC1`, the viability, T/C is 54.9% [middle of 12 runs] (compound 0.1 µM); 21.7% [middle of 12 runs] (compound 0.316 µM); 1.79% [middle of 12 runs] (compound 1 µM); 0.9% [middle of 12 runs] (compound 3.16 µM); 0.22% [middle of 9 runs] (compound 10 µM). In addition, the IC50 (compound alone, run of 07/31/2023) was 119 nM [middle of 12 runs].
For `COc1ccc([C@@H](O)c2cc(-c3ncnc4cc(N5CCOCC5)ccc34)c(F)cc2Cl)nn1`, the viability, T/C is 100% and 86.5% (compound 0.0316 µM); 68.5% and 86.3% (compound 0.1 µM); 58.5% and 56.8% (compound 0.316 µM); 52.6% and 42.2% (compound 1 µM); 34.3% and 27.2% (compound 3.16 µM); 10.5% and 11.7% (compound 10 µM). Further, the IC50 (curve of compound) is 756 nM and 632 nM.
`COc1cccc2c1C(=O)c1c(O)c3c(c(O)c1C2=O)CC(O)(C(=O)CO)CC3OC1CC(N)C(O)C(C)O1` (configuration not stated): the viability, T/C was 36.9% and 42.6% (compound 0.0316 µM); 24.5% and 29.6% (compound 0.1 µM); 26.5% and 27.4% (compound 0.316 µM); 16.9% and 18.4% (compound 1 µM); 3.52% and 3.31% (compound 3.16 µM); 1.28% and 0.73% (compound 10 µM). Further, for the setting “curve of compound”, the 50% inhibitory concentration (IC50) is under 31.6 nM.
As for `Nc1ccn(C2OC(CO)C(O)C2(F)F)c(=O)n1` (configuration not stated), the viability, T/C runs as follows: (compound 0.0316 µM) 53.5% and 66.5%; (compound 0.1 µM) 28.6% and 26%; (compound 0.316 µM) 22.5% and 22.4%; (compound 1 µM) 24.3% and 26%; (compound 3.16 µM) 25.1% and 29.9%; (compound 10 µM) 29.4% and 29.8%. Also, the IC50 (curve of compound) is 37.1 nM and 51.3 nM.
In the case of `O=C(c1cc(Cc2n[nH]c(=O)c3ccccc23)ccc1F)N1CCN(C(=O)C2CC2)CC1`, the viability, T/C (compound 0.0316 µM) is 100% and 92.1%; the viability, T/C (compound 0.1 µM) is 81.1% and 72%; the viability, T/C (compound 0.316 µM) was 103% and 91.9%; the viability, T/C (compound 1 µM) is 89.3% and 89.4%; the viability, T/C (compound 3.16 µM) is 96.2% and 123%; the viability, T/C (compound 10 µM) is 86.3% and 79.1%. The IC50 (curve of compound) was over 10000 nM.
On to `O=c1[nH]cc(F)c(=O)[nH]1`, for which the viability, T/C (compound 0.0316 µM) is 94.6% and 72.3%; the viability, T/C (compound 0.1 µM) was 93.9% and 80.7%; the viability, T/C (compound 0.316 µM) was 56.5% and 62.8%; the viability, T/C (compound 1 µM) is 38% and 36.6%; the viability, T/C (compound 3.16 µM) is 36.2% and 32.5%; the viability, T/C (compound 10 µM) is 29.7% and 25.7%. Also, under “curve of compound”, the IC50 was 457 nM and 563 nM.
